According to article PMC13233288, “Spider venom peptides Ht1a and Gg1a are toxic to honeybee parasite Varroa destructor by topical application” (npj Drug Discovery, 2026):
“Also recorded” adds a separate entry of the source. No end group written: not given here.

Columns and labels:
[1] = tested on: hCaV2.2; test: FLIPR Ca2+ fluorescence, KCl/CaCl2-stimulated SH-SY5Y cells; assay type: cell-based, human; conditions: 10 µM, added 5 min prior to KCl/CaCl2 (90 mM/5 mM)
Protocol: (§1) To further test the selectivity of sHt1a and sGg1a, we examined their activity on hNaV1.2/NaV1.7 and hCaV2.2 channels, as well as the hα3β2/4 nicotinic acetylcholine receptor (nAchR), that are endogenously expressed in the neuroblastoma cell line SH-SY5Y using a high-throughput fluorescent assay as previously described. In brief, SH-SY5Y cells were seeded at a density of 40,000 cells/well in black-walled imaging plates (Corning, Lowell, MA, USA), then incubated for 48 h at 37 °C in a 5% humidified CO2 incubator. On the day of the assay, cells were loaded with Calcium 4 No-wash dye (Molecular Devices) by reconstituting the lyophilised dye in physiological salt solution (PSS in mM: 140 NaCl, 11.5 glucose, 5.9 KCl, 1.4 MgCl2, 1.2 NaH2PO4, 5 NaHCO3, 1.8 CaCl2, 10 HEPES, pH 7.4). Cells were incubated with the dye for 30 min at 37 °C in a 5% humidified CO2 incubator. Gg1a and Ht1a (10 µM) were added 5 min prior to stimulation with either veratridine (50 µM, hNaV1.2/NaV1.7 activator), nicotine (30 µM, hα3β2/4 nAchR activator) or KCl/CaCl2 (90 mM/5 mM, CaV1.3/2.2 activator) Fluorescent responses were recorded using a FLIPR^Penta fluorescent plate reader (Molecular Devices) with excitation at 470–495 nm and emission at 515–575 nm.

[2] = tested on: hNaV1.2/NaV1.7; test: FLIPR Ca2+ fluorescence, veratridine-stimulated SH-SY5Y cells; assay type: cell-based, human; conditions: 10 µM, added 5 min prior to veratridine (50 µM)
Protocol: as §1

[3] = tested on: honeybees; test: Topical application of synthetic peptides to honeybees (off-target); assay type: in vivo, Apis mellifera; conditions: 25 μg peptide per honeybee (52-fold the mite dose) in 2% Silwet (v/v), n = 10 workers per group, 3 repeats, vs 2% Silwet control
From the text: If sprayed within a beehive, the varroacidal peptides would need to lethal for V. destructor, but safe for the honeybees. To evaluate potential off-target activities of the varroacidal peptides, we first needed to quantify how much larger the body surface of the bees is in comparison to the mites to understand how much more of the varroacidal peptides they would receive when being sprayed. Assuming an elliptical body shape of V. destructor, the surface area can be calculated according to the following formula: A=π×a×b×2
This also means that if we evenly applied these peptides via spraying at a certain concentration to both bees and mites, then the bees would receive a 34-fold higher peptide quantity due to their correspondingly higher surface area.
To allow for an additional safety margin, we topically applied 25 μg of each peptide per bee, which is 52-fold more than the 0.48 μg that each varroa mite received. The effects of sHt1a and sGg1a were tested on honeybees kept in plastic containers in the laboratory. The containers consisted of 250 ml polypropylene round cups with a 52 mm diameter hole cut into the bottom, covered with a 68 mm diameter circle of all-purpose cloth (brand: Peggy Perfect) hot glued to the edge of the hole on the outside of the cup (Supplementary Fig. 3). A 14 mm diameter hole was cut in the lid of the cup to insert a 5 mL syringe which served as feeder. The syringe was filled with 50% sucrose solution, and its tip was cut off to facilitate solution intake by the bees. Honeybee workers were obtained from a comb with emerging individuals placed in an incubator set to 34.5 °C and 70% humidity. The next day, groups of 10 freshly emerged workers were collected, introduced into the prepared cages and placed back in the incubator overnight. The next morning, peptide and control solutions to be tested were freshly prepared from the stock solutions stored at 4 °C. Then, the bees were sedated with CO2 gas until they stopped moving. Immediately after all bees stopped moving, the plastic lid was removed, and 15 µL of testing solution (containing 2% Silwet (v/v) or 25 μg of each peptide per bee) was topically applied on each of the 10 bees per group. The solution was applied on the abdomen or thorax, but not on the wings or head of the individuals. Following treatment, the worker bees were allowed to recover from the sedation and the containers with the bees were put back in the incubator, with mortality being manually checked daily. At the end of each experiment, all arthropods were euthanised by freezing at −20 °C.

KYCAPRKAVCNTPADCCDKSSRCAYPNYGLGYYLDSEFFGKRKICSWRL (also: bicyclic or more (positions not given here)) [Ht1a, μ-gradutoxin-Ht1a]
effect on CaV2.2 [1]: inactive | effect on CaV2.2 ([1]; listed as sHt1a): did not significantly affect | effect on neuronal NaV channels [2]: inactive | effect on neuronal NaV channels ([2]; listed as sHt1a): did not significantly affect | honeybee mortality/survival [3]: innocuous to honeybees | honeybee mortality/survival ([3]; listed as sHt1a): neither peptide caused more mortality; also recorded: did not alter honeybee survival

U1-macrothelitoxin-Gg1a
effect on CaV2.2 [1]: inactive | effect on CaV2.2 ([1]; listed as sGg1a): did not significantly affect | effect on neuronal NaV channels [2]: inactive | effect on neuronal NaV channels ([2]; listed as sGg1a): did not significantly affect | honeybee mortality/survival [3]: innocuous to honeybees | honeybee mortality/survival ([3]; listed as sGg1a): neither peptide caused more mortality; also recorded: did not alter honeybee survival
